Results from patent publication US6552197B2, “Condensed-hexacyclic compounds and a process therefor” (Daiichi Pharmaceutical Co., Ltd., priority 1995, dated 2003).

Columns and labels:
[1] = Hygroscopicity test (weight changes due to moisture absorption); format: physicochemical; conditions: exposed to humidity of 83% and 93% at 25° C. over 5 days; FIG. 1
Description: A hygroscopicity test was conducted on (lS,9S)-1-amino-9-ethyl-5-fluoro-2,3-dihydro-9-hydroxy-4-methyl-1H,12H-benzo[de]pyrano[3′,4′:6,7]indolizino[1,2-b]-quinoline-10,13(9H,15H)-dione•methanesulfonate•dihydrate according to the present invention and (1S,9S)-1-amino-9-ethyl-5-fluoro-2,3-dihydro-9-hydroxy-4-methyl-1H,12H-benzo[de]pyrano[3′,4′:6,7]indolizino[1,2-b]-quinoline-10,13(9H,15H)-dione-hydrochloride (control product).
Described specifically, each salt was exposed to high-humidity conditions of 83% and 93% at 25° C. Over a period of 5 days, its weight changes were investigated.

[2] = Color change on storage at high relative humidity, measured by a color difference meter; format: physicochemical; conditions: for color change observed on stored sample: stored at a high relative humidity
Description: The control product was stored at a relative humidity of 93% and the degree of a color change was measured.

[3] = stored for 0 month, relative humidity 93%
[4] = stored for 1 month, 25° C., relative humidity 93%
[5] = stored for 2 months, 25° C., relative humidity 93%

| SMILES | weight changes due to moisture absorption (hygroscopicity) [1] | decomposition by moisture absorption (conclusion from color change) ([2]; stored at 25° C., relative humidity 93%) | color change observed on stored sample [2] | Color [2, 3] | Lab (chromaticity, brightness) [2, 3] | Color [2, 4] | Lab (chromaticity, brightness) [2, 4] | ΔE(H) (degree of a color difference) [2, 4] | Color [2, 5] | Lab (chromaticity, brightness) [2, 5] | ΔE(H) (degree of a color difference) [2, 5] |
| --- | --- | --- | --- | --- | --- | --- | --- | --- | --- | --- | --- |
| CC[C@@]1(O)C(=O)OCc2c1cc1n(c2=O)Cc2c-1nc1cc(F)c(C)c3c1c2[C@@H](N)CC3.Cl [control product, (1S,9S)-1-amino-9-ethyl-5-fluoro-2,3-dihydro-9-hydroxy-4-methyl-1H,12H-benzo[de]pyrano[3′,4′:6,7]indolizino[1,2-b]-quinoline-10,13(9H,15H)-dione-hydrochloride] | high hygroscopicity and a fast weight change due to hygroscopicity | decomposes by moisture absorption | color change (yellowish brown—brown; originally: yellow) was observed | Yellow | 81.68-81.69 | brown-yellow | 74.96-75.23 | 7.16-7.38 | brown-yellow | 62.65-67.43 | 14.53-19.24 |
| CC[C@@]1(O)C(=O)OCc2c1cc1n(c2=O)Cc2c-1nc1cc(F)c(C)c3c1c2[C@@H](N)CC3 [methanesulfonate, (1S,9S)-1-Amino-9-ethyl-5-fluoro-2,3-dihydro-9-hydroxy-4-methyl-1H,12H-benzo[de]pyrano[3′,4′:6,7]-indolizino[1,2-b]quinoline-10,13(9H,15H)-dione•methanesulfonate•dihydrate] | a gradual and small change | – | No color change | – | – | – | – | – | – | – | – |
